Consider 16 molecules from US12630565B2, “DNA-dependent protein kinase inhibitor” (DIZAL (JIANGSU) PHARMACEUTICAL CO., LTD., priority 2019, dated 2026).

Some results are limits rather than exact numbers.

A short description of series [1]: Metabolic stability assay (human microsomal Clint). Format: in vitro ADME. The note with it: human, pooled human liver microsomes, pH 7.4, 1 μM compound, 1 mg/mL microsomes, 1 mM NADPH, 37° C. As to the method: 1 μM compound was incubated with 1 mg/mL of microsomes (Pooled HLM with 20 mg/ml protein cone) at 37° C. in 250 μL of buffer (100 mM phosphate buffer, pH-7.4) containing 1 mM NADPH solution. 20 μL of incubation mix was quenched with 5 volumes chilled acetonitrile at different time points 0, 0.5, 5, 10, 15, 20 and 30 min in a fresh 96 well plate. The quench plate was centrifuged at 4000 rpm for 15 min. 40 μL of supernatant was diluted to 200 μL with pure water and analyzed using LC-MS/MS.
In vitro intrinsic clearance of the drugs in the microsome CLint (μl/min/mg) was calculated in the similar manner as the CLint in the hepatocyte.

For series [2], the target named is Full length human DNAPK protein (Homo sapiens, UniProt P78527). The series can be described thus: DNA-PK enzymatic assay (TR-FRET). It is filed as biochemical. The conditions noted are these: 10 μM ATP, 1.6 μM peptide substrate. A general note: TR-FRET usually uses a lanthanide donor and a delayed reading to cut background.
The test system of a further series is Rat hepatocyte. The series can be described thus: Metabolic stability assay (rat hepatocyte Clint). It is filed as in vitro ADME. The note with it: 1 μM compound, cryopreserved hepatocytes 1 million cells per mL. On the procedure: Viability of cryopreserved hepatocytes was determined using trypan blue and the cell conc. was adjusted to […] with buffer. 1 μM compound (in Acetonitrile; 0.01% DMSO) was incubated with 250 μL of hepatocytecells (1 million cells per mL) in a 96 deep well plate. Reaction was stopped at different time points (0, 0.5, 5, 15, 30, 45, 60, 80, 100 and 120 min) by addition of 3 volumes of chilled acetonitrile to 20 μL of reaction mixture and centrifuged at 4° C. for 15 min. 40 μL of supernatant was diluted to 200 μL with pure water and analyzed using LC-MS/MS.
In vitro hepatocyte clearance was estimated based on determination of elimination half-life (T1/2) of compounds disappearance from their initial concentrations. Peak area ratios of each compound (test or control) to IS was calculated. Drug elimination rate constant k (min−1), T1/2 (min), and in vitro intrinsic clearance CLint (μL/min/E6) was calculated according to the following equations: […]
Where Chep (cells×μL^−1) is the cell concentration in the incubation system.

The subject of another series is MDR1, BCRP. Nature of the series: MDCKII-MDR1-BCRP efflux assay. Format: in vitro ADME. The conditions noted are these: dog, pH 7.4, 5 μM compound, HBSS pH 7.4, read-out: MDCK-Mdr1-BCRP efflux ratio. As to the method:
The apical-to-basolateral (A-B) and basolateral-to-apical (B-A) transport of compound in HBSS (25 mM HEPES, pH 7.4) was measured across MDCKII-MDR1-BCRP cell monolayers. Incubations were performed at approximately 37° C. for 120 min, with functionality of the test system being confirmed using 5 μM digoxin as a positive control substrate. Transport of 5 μM compound and control compound were determined by quantifying substrate concentration in the incubation medium of donor compartment at the beginning of the incubation period, and both donor and receiver compartments at the end of the incubation period. The data was used to calculate the apparent permeability (Papp). All incubations were performed in triplicate and integrity of the cell monolayers was confirmed using the marker Lucifer yellow.
The permeability coefficient Pexact (cm/s) was calculated using the equation: […]
The Pexact ratio was calculated using the equation: […]
The efflux ratio was calculated using the equation: […]
Where dCr/dt is the cumulative concentration of compound in the receiver chamber as a function of time (μM/s); Vr is the solution volume in the receiver chamber (0.1 mL on the apical side, 0.3 mL on the basolateral side); A is the surface area for the transport, i.e. 0.11 cm2 for the area of the monolayer; CO is the initial concentration in the donor chamber (μM).

For the molecule `Cc1cc2ncnn2cc1Nc1ncc2c(n1)c(C1CCC(F)(F)CC1)nn2C` [Example 9, 3-(4,4-difluorocyclohexyl)-1-methyl-N-(7-methyl-[1,2,4]triazolo[1,5-a]pyridin-6-yl)-1H-pyrazolo[4,3-d]pyrimidin-5-amine], in series [1], the microsomal CLint (commonly a measure of how fast metabolising enzymes remove a compound, apart from limits set by blood flow) at 1 μM was determined as 135 µL/min/mg. In addition, the IC50 (commonly the concentration at which inhibition is half-maximal) in series [2] worked out at 0.7 nM. Moreover, the “Rat hepatocyte CLint (μl/min/10^−6 cells)” value (“Rat hepatocyte CLint” below) in the series on Rat hepatocyte is given as 11.3 μl/min/10^−6 cells. Also, in the series on MDR1, BCRP, the efflux ratio at 120 min, 5 μM came out at 1.3.
Turning to `[2H]C([2H])([2H])n1nc(C2CCOCC2)c2nc(Nc3cn4ncnc4cc3C)ncc21` [Example 10, 1-(methyl-d3)-N-(7-methyl-[1,2,4]triazolo[1,5-a]pyridin-6-yl)-3-(tetrahydro-2H-pyran-4-yl)-1H-pyrazolo[4,3-d]pyrimidin-5-amine], in series [1], the microsomal CLint at 1 μM came out at 17.2 µL/min/mg. This molecule displayed an IC50 in series [2] of 1.7 nM. Besides, in the series with Rat hepatocyte, the “Rat hepatocyte CLint” value amounted to 6.8 μl/min/10^−6 cells. Further, the efflux ratio at 120 min, 5 μM with MDR1, BCRP is 7.2.
Taken in the same sequence, the figures for `Cc1cc2ncnn2cc1Nc1ncc2c(n1)c([C@H]1CC[C@@H](OC(F)F)CC1)nn2C` [Example 11, 3-((1s,4s)-4-(difluoromethoxy)cyclohexyl)-1-methyl-N-(7-methyl-[1,2,4]triazolo[1,5-a]pyridin-6-yl)-1H-pyrazolo[4,3-d]pyrimidin-5-amine] were above 300 µL/min/mg, 0.7 nM, 190.4 μl/min/10^−6 cells and 1.8.
`Cc1cc2ncnn2cc1Nc1ncc2c(n1)c([C@H]1CC[C@H](OC(F)F)CC1)nn2C` [Example 12, 3-((1r,4r)-4-(difluoromethoxy)cyclohexyl)-1-methyl-N-(7-methyl-[1,2,4]triazolo[1,5-a]pyridin-6-yl)-1H-pyrazolo[4,3-d]pyrimidin-5-amine] showed a microsomal CLint at 1 μM in series [1] of 109 µL/min/mg. For the same molecule, in series [2], the IC50 was 1.1 nM. In the series on Rat hepatocyte, the “Rat hepatocyte CLint” value is given as 70.3 μl/min/10^−6 cells. Moreover, the efflux ratio at 120 min, 5 μM in the series on MDR1, BCRP was 2.1.
Taken in the same sequence, the figures for `Cc1cc2ncnn2cc1Nc1ncc2c(C)nn(C3CCOCC3)c2n1` [Example 13, 3-methyl-N-(7-methyl-[1,2,4]triazolo[1,5-a]pyridin-6-yl)-1-(tetrahydro-2H-pyran-4-yl)-1H-pyrazolo[3,4-d]pyrimidin-6-amine] were 12.9 µL/min/mg, 3.9 nM, below 1 μl/min/10^−6 cells and 2.8.
The matching figures for `Cc1cc2nccn2cc1Nc1ncc2c(C)nn(C3CCOCC3)c2n1` [Example 14, 3-methyl-N-(7-methylimidazo[1,2-a]pyridin-6-yl)-1-(tetrahydro-2H-pyran-4-yl)-1H-pyrazolo[3,4-d]pyrimidin-6-amine]: 9.9 µL/min/mg, 1.6 nM, 1.7 μl/min/10^−6 cells and 2.3.
The matching figures for `Cc1cc2ncnn2cc1Nc1ncc2c(C)cn(C3CCOCC3)c2n1` [Example 15, 7-methyl-N-(5-methyl-7-(tetrahydro-2H-pyran-4-yl)-7H-pyrrolo[2,3-d]pyrimidin-2-yl)-[1,2,4]triazolo[1,5-a]pyridin-6-amine]: 69.6 µL/min/mg, 35.2 nM, 14.6 μl/min/10^−6 cells and 0.8.
The molecule `Cc1nn(C2CCOCC2)c2nc(Nc3cn4ncnc4cc3Cl)ncc12` [Example 16, N-(7-chloro-[1,2,4]triazolo[1,5-a]pyridin-6-yl)-3-methyl-1-(tetrahydro-2H-pyran-4-yl)-1H-pyrazolo[3,4-d]pyrimidin-6-amine] showed a microsomal CLint at 1 μM in series [1] of 26.4 µL/min/mg. This molecule registered an IC50 in series [2] of 8.4 nM. Further, the “Rat hepatocyte CLint” value with Rat hepatocyte was 11.8 μl/min/10^−6 cells. The efflux ratio at 120 min, 5 μM in the series with MDR1, BCRP turned out to be 0.8.
The matching figures for `Cc1cc2ncnn2cc1Nc1ncc2c(C(F)(F)F)nn(C3CCOCC3)c2n1` [Example 17, N-(7-methyl-[1,2,4]triazolo[1,5-a]pyridin-6-yl)-1-(tetrahydro-2H-pyran-4-yl)-3-(trifluoromethyl)-1H-pyrazolo[3,4-d]pyrimidin-6-amine]: 54.7 µL/min/mg, 5.2 nM, 7.2 μl/min/10^−6 cells and 1.5.
Take `COc1ccc(Cn2nc(C)c3cnc(Nc4cn5ncnc5cc4C)nc32)cc1` [Example 18, 1-(4-methoxybenzyl)-3-methyl-N-(7-methyl-[1,2,4]triazolo[1,5-a]pyridin-6-yl)-1H-pyrazolo[3,4-d]pyrimidin-6-amine]: the microsomal CLint at 1 μM in series [1] was 153 µL/min/mg. In addition, in series [2], the IC50 stood at 2.6 nM. Also, the “Rat hepatocyte CLint” value in the series with Rat hepatocyte stood at 31.7 μl/min/10^−6 cells. Further, the efflux ratio at 120 min, 5 μM with MDR1, BCRP was determined as 1.1.
For the molecule `Cc1cc2ncnn2cc1Nc1ncc2c(C)nn(C3CCN(C)CC3)c2n1` [Example 19, 3-methyl-N-(7-methyl-[1,2,4]triazolo[1,5-a]pyridin-6-yl)-1-(1-methylpiperidin-4-yl)-1H-pyrazolo[3,4-d]pyrimidin-6-amine], the microsomal CLint at 1 μM in series [1] was 4.3 µL/min/mg. Moreover, in series [2], the midpoint of inhibition, the IC50, lay at 25.9 nM. For the same molecule, the “Rat hepatocyte CLint” value with Rat hepatocyte is 6.8 μl/min/10^−6 cells. The efflux ratio at 120 min, 5 μM in the series with MDR1, BCRP turned out to be 13.1.
Taken in the same sequence, the figures for `Cc1cc2ncnn2cc1Nc1ncc2c(C)nn(C3CCCCC3)c2n1` [Example 20, 1-cyclohexyl-3-methyl-N-(7-methyl-[1,2,4]triazolo[1,5-a]pyridin-6-yl)-1H-pyrazolo[3,4-d]pyrimidin-6-amine] were 117 µL/min/mg, 1.3 nM, 52.0 μl/min/10^−6 cells and 0.8.
In the case of `Cc1cc2ncnn2cc1Nc1ncc2c(C)nn(C3CCC(OC(F)F)CC3)c2n1` (stereo not shown) [Example 23, 1-(4-(difluoromethoxy)cyclohexyl)-3-methyl-N-(7-methyl-[1,2,4]triazolo[1,5-a]pyridin-6-yl)-1H-pyrazolo[3,4-d]pyrimidin-6-amine], the microsomal CLint at 1 μM in series [1] turned out to be 115 µL/min/mg. Besides, the IC50 in series [2] turned out to be 0.7 nM. Besides, in the series with Rat hepatocyte, the “Rat hepatocyte CLint” value stood at 21.2 μl/min/10^−6 cells. Moreover, in the series on MDR1, BCRP, the efflux ratio at 120 min, 5 μM came to 0.9.
Taken in the same sequence, the figures for `CO[C@H]1CC[C@@H](n2nc(C)c3cnc(Nc4cn5ncnc5cc4C)nc32)CC1` [Example 25, 1-((1s,4s)-4-methoxycyclohexyl)-3-methyl-N-(7-methyl-[1,2,4]triazolo[1,5-a]pyridin-6-yl)-1H-pyrazolo[3,4-d]pyrimidin-6-amine] were 209 µL/min/mg, 1.8 nM, 17.7 μl/min/10^−6 cells and 1.3.
Taken in the same sequence, the figures for `CO[C@H]1CC[C@H](n2nc(C)c3cnc(Nc4cn5ccnc5cc4C)nc32)CC1` [Example 26, 1-((1r,4r)-4-methoxycyclohexyl)-3-methyl-N-(7-methylimidazo[1,2-a]pyridin-6-yl)-1H-pyrazolo[3,4-d]pyrimidin-6-amine] were 134 µL/min/mg, 3 nM, 13.6 μl/min/10^−6 cells and 4.2.
Taken in the same sequence, the figures for `Cc1cc2ncnn2cc1Nc1ncc2c(C)nn([C@H]3CC[C@H](O)CC3)c2n1` [Example 31, (1r,4r)-4-(3-methyl-6-((7-methyl-[1,2,4]triazolo[1,5-a]pyridin-6-yl)amino)-1H-pyrazolo[3,4-d]pyrimidin-1-yl)cyclohexan-1-ol] were 6.6 µL/min/mg, 1.8 nM, 12.4 μl/min/10^−6 cells and 31.2.
